Here are results for two molecules from patent publication US6596258B1, “Method of obtaining extracellular and intracellular pH images and spectra by magnetic resonance using extrinsic indicators containing 1H or 19F” (Universidad Nacional de Educacion a Distancia, priority 1997, dated 2003).

Series [1] can be described thus: Kinetics of tissue uptake after intravenous injection, 1H NMR of perchloric acid organ extracts. Particulars: Wistar rats, 1 mmol intravenous.
The subject of series [2] is NIH 3T3 mouse fibroblasts. Briefly: Toxicity in cell culture (cell survival after 72 h incubation). The following applies: for Cell survival (average optical density, an index of cell number): NIH 3T3, mean±SD of four determinations. The procedure: NIH 3T3 mouse fibroblasts were grown in Dulbecco modified essential medium (DMEM) supplemented with 10% fetal calf serum (FCS, Hyclone, Logan, Utah, USA).
Results represent the mean±SD of four determinations from different culture dishes at each concentration.

The test system of a further series is Male Swiss albino mice. Briefly: Toxicity (LD50) in intact animals, intraperitoneal, method of Miller and Tainter. The following applies: doses as high as 3 g/Kg of body weight. From the text:
At least seven different doses, each one of then administered to six mice, which were kept in different cages, were used for each compound.

Series [3] is described as follows: Plasma kinetics after intravenous (jugular vein) injection, 1H NMR of plasma. Particulars: male Wistar rats.
The mark [4] stands for this setting: injection into right jugular vein.

`c1c[nH]cn1` [Compound 1, Imidazol]: in series [1], the “Concentration reached in kidney” value is recorded as 12.1 μmol/g of body weight, the “Concentration reached in skeletal muscle” value was 5.3 μmol/g of body weight, the “Time of peak concentration in kidney” value came out at 30 min and the “Time of peak concentration in skeletal muscle” value fell in the range of 10 to 20 min.
With `CCOC(=O)CC(C(=O)O)n1ccnc1` (racemic) [Compound 9, (±)-3-(etoxycarbonyl)-2-imidazol-1-ilpropionic acid], the “Cell survival (average optical density, an index of cell number)” value in series [2] (1.0 mM compound) is given as 1.68 ± 0.04. For the same molecule, the “Cell survival (average optical density, an index of cell number)” value in series [2] (5.0 mM compound) was found to be 1.38 ± 0.06. Further, the “Cell survival (average optical density, an index of cell number)” value in series [2] (10.0 mM compound) is listed as 1.52 ± 0.13. Further, the “Cell survival (average optical density, an index of cell number)” value in series [2] (20.0 mM compound) came out at 1.54 ± 0.09. The “Toxicity in cell culture (in words)” value in series [2] (NIH 3T3, 0 to 20 mM) is on record as “did not exhibit any toxicity”. The “Toxicity in intact animals (in words)” value in the series on Male Swiss albino mice is recorded as “did not exhibit any toxicity”. In addition, in series [3] (setting [4]), the “Clearance from plasma, t1/2” value is 6 min; the “Highest concentration in plasma” value came to 6.6 mM; the “Time after injection at which highest plasma concentration was attained” value stood at 1 min. Besides, the “Signs of toxicity during the pharmacokinetic experiment” value in series [3] (intravenous injection) is recorded as “No signs of toxicity were detected”. Also, in series [1], the “Concentration reached in brain” value is reported as “absent”, the “Concentration reached in heart” value is < 0.5 μmol/g of body weight, the “Concentration reached in kidney” value is recorded as 13.9 μmol/g of body weight and the “Concentration reached in liver” value is listed as < 0.2 μmol/g of body weight. In series [1], the “Concentration reached in skeletal muscle” value is 5.8 μmol/g of body weight, the “Time of peak concentration in kidney” value is listed as 10 min and the “Time of peak concentration in skeletal muscle” value is on record as 20 min.
